According to PubChem BioAssay (NCI):
Values joined by “and” are separate entries in the source; they are usually repeats but may differ in a detail not shown here. Equal entries are not always repeated.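 Protocol summary: plate cells (96-well), add compound at 5 concentrations, incubate 48 h, interpolate endpoints linearly. GI50 marks 50% less growth. Definition used: TGI = concentration required for complete inhibition of growth.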

Experiments:
Assay in all cases: NCI tumour cell line growth inhibition, 48 h
[1] = tested on: RXF 393 renal
[2] = tested on: UACC-257 melanoma
[3] = tested on: COLO 205 colon
[4] = tested on: SK-MEL-28 melanoma
[5] = tested on: DU-145 prostate
[6] = tested on: SK-MEL-2 melanoma
[7] = tested on: SW-620 colon
[8] = tested on: HL-60(TB) leukemia
[9] = tested on: HT29 colon
[10] = tested on: OVCAR-3 ovarian

SMILES | GI50 [1] | TGI [1] | GI50 [2] | TGI [2] | GI50 [3] | TGI [3] | GI50 [4] | TGI [4] | GI50 [5] | TGI [5] | GI50 [6] | TGI [6] | GI50 [7] | TGI [7] | GI50 [8] | TGI [8] | GI50 [9] | TGI [9] | GI50 [10] | TGI [10]
Cc1nc(N)sc1C(=O)Nc1cc(C(=O)NCCCN(C)C)n(C)c1 | > 100 µM | > 100 µM | > 100 µM | > 100 µM | > 100 µM | > 100 µM | 65.4 µM | > 100 µM | 67.3 µM | > 100 µM | > 100 µM | > 100 µM | > 100 µM | > 100 µM | > 100 µM | > 100 µM | > 100 µM | > 100 µM | > 100 µM | > 100 µM
C#CCOc1cccc(Nc2ncnc3ccc(NC(=O)CCl)cc23)c1 | 4.47 µM | 19 µM | 7.49 µM | 26 µM | 0.463 µM | 16.8 µM | 5.15 µM | 27 µM | 0.73 µM | 14.1 µM | 4.07 µM | 24.1 µM | 0.0614 µM | 5.88 µM | 1.66 µM | 19.2 µM | 0.0981 µM | 6.87 µM | 0.908 µM | 7.06 µM
O=C(c1ccccc1)c1nc2ccc(C(F)(F)F)cc2[n+]([O-])c1C(F)(F)F | 31.8 µM | > 100 µM | 22.7 µM | > 100 µM | 26.8 µM | > 100 µM | 58.8 µM | > 100 µM | 71.9 µM | > 100 µM | 27.5 µM | > 100 µM | 47.5 µM | > 100 µM | 19 µM | 52.5 µM | 48.6 µM | > 100 µM | 24.2 µM | > 100 µM
O=C1c2c(O)cc(O)cc2OC(c2ccc(O)cc2O)C1O (stereo unspecified) | – | > 100 µM | > 100 µM | > 100 µM | > 100 µM | > 100 µM | > 100 µM | > 100 µM | – | > 100 µM | > 100 µM | > 100 µM | > 100 µM | > 100 µM | > 100 µM | > 100 µM | > 100 µM | > 100 µM | > 100 µM | > 100 µM
CCOC(=O)c1cc2c(n1Cc1ccccc1)-c1oncc1CC2 | 6.88 µM | 30.9 µM | 10.7 µM | 59.7 µM | 3.93 µM | 14.2 µM | 52.4 µM | > 100 µM | 11.4 µM | 44 µM | 6.15 µM | 27.3 µM | 3.48 µM | > 100 µM | 2.4 µM | 6.59 µM | 3.23 µM | 14.4 µM | 3.06 µM | 10.5 µM
CCCSC1=NC2C(N(CC)C(=O)N2CC)N1/N=C/C=C/c1ccccc1[N+](=O)[O-] (stereo unspecified) | 1.8 µM | 8.32 µM | 11 µM | > 100 µM | 3.13 µM | 56.5 µM | 6.96 µM | > 100 µM | 3.51 µM | > 100 µM | 7.26 µM | > 100 µM | 4.25 µM | > 100 µM | 3.27 µM | 12.1 µM | 3.16 µM | > 100 µM | 3.11 µM | 14.9 µM
CCOC(=O)Nc1ccc(-c2nc(-c3cccc(OC)c3)c(-c3ccnc(Br)c3)[nH]2)cc1 | 0.712 µM | 2.94 µM | 2.68 µM | 7.9 µM | 3.23 µM | > 100 µM | 2.8 µM | > 100 µM | 3.24 µM | > 100 µM | 2.58 µM | 6.69 µM | 3.19 µM | > 100 µM | 2.34 µM | 7.41 µM | 3.45 µM | > 100 µM | 2.82 µM | 8.44 µM
CS(=O)(=O)CCNCc1ccc(-c2ccc3ncnc(Nc4ccc(OCc5ccccc5)c(Cl)c4)c3c2)o1 | 1.61 µM | 6.33 µM | 3.92 µM | 7.74 µM | 4.05 µM | 9.67 µM | 3.85 µM | 7.49 µM | 7.91 µM | > 25 µM | 4.62 µM | 9.71 µM | 4.49 µM | 8.98 µM | 5.2 µM | 11.8 µM | 3.53 µM | 7.98 µM | 6.54 µM | > 25 µM
COC1=Nc2ccccc2S(=O)(=O)C=C1 | – | 8.69 µM | 0.671 µM | 20.5 µM | 0.695 µM | 4.01 µM | – | 19.9 µM | – | 31.4 µM | – | 35.8 µM | 0.875 µM | 3.46 µM | 1.95 µM | – | – | 26.7 µM | – | 6.79 µM
CC(=O)[O][Hg][c]1ccccc1 | 0.234 µM | 0.797 µM | 0.908 µM | 2.18 µM | 0.65 µM | 1.67 µM | 0.383 µM | 1.47 µM | 1.25 µM | 2.72 µM | 0.401 µM | 1.27 µM | 0.215 µM | 0.492 µM | 0.201 µM | 0.487 µM | 0.626 µM | 2.46 µM | 0.147 µM | 0.295 µM
Nc1c(C(=O)Nc2ccccc2F)sc2nc3c(cc12)C(=O)CCC3 | 0.738 µM | 3.82 µM | > 100 µM | > 100 µM | 0.696 µM | 6.81 µM | 6.33 µM | > 100 µM | 1.81 µM | > 28.6 µM | 0.683 µM | > 100 µM | 0.721 µM | > 100 µM | 2.4 µM | > 100 µM | 0.531 µM | > 100 µM | 0.576 µM | 3.9 µM
Cc1c(NC(=O)OC[C@@H]2COCCN2)cn2ncnc(Nc3ccc4c(cnn4Cc4cccc(F)c4)c3)c12 | 2.89 µM and 4.15 µM | > 10 µM and 15.3 µM | > 10 µM and 5.34 µM | > 10 µM and 18.2 µM | 4.75 µM and 5.07 µM | > 10 µM and 16.9 µM | > 10 µM and 7.04 µM | > 10 µM and 21.4 µM | 9.5 µM and 4.26 µM | > 10 µM and 20.6 µM | > 10 µM and 12.9 µM | > 10 µM and 29.4 µM | > 10 µM and 10.5 µM | > 10 µM and 24.6 µM | 7.76 µM and 17.5 µM | > 10 µM and 37 µM | 6.38 µM and 4.65 µM | > 10 µM and 16.9 µM | > 10 µM and 6.66 µM | > 10 µM and 21.5 µM
